Consider 1 molecule from paper PMC6105827, “Antitrypanosomal 8-Hydroxy-Naphthyridines Are Chelators of Divalent Transition Metals” (Antimicrobial Agents and Chemotherapy, 2018).

The nature of this series: Spectrophotometric UV-Vis titration and Job's plot of binding to divalent cations. The class given is physicochemical. The method, then: UV-visible (UV-Vis) titrations were carried out essentially as described previously ([65], [66]). Aliquots of metal divalent cations (concentrated stocks were made initially in water and then diluted in methanol) were added to a fixed concentration of 50 μM 8-HNT compound in methanol. After each aliquot addition, the incubation mixture was left to stabilize for 5 min at 25°C prior to scanning. Wavelength scanning was carried out at between 260 and 510 nm by using a UV-2401 PC UV-Vis spectrophotometer (Shimadzu). For Job's plot analyses ([66]), the combined concentration of 8-HNT and cation was fixed at 200 μM, and only the molar ratio of cation versus 8-HNT compound varied. Changes of the absorption at 475, 390, and 375 nm were indicative of cation complex formation with compounds 1 to 3, respectively. Specific absorbance at these wavelengths was determined and plotted against the molar ratio of compound to cation to determine complex stoichiometry ([66]).

Consider `Cc1nnc(-c2nc(NCc3ccc(Cl)cc3)c3cccnc3c2O)[nH]1` [Compound 1], for which the “Zn^2+ concentration at which binding is saturable” value (50 μM compound, absorbance at 475 nm) came to 25 µM. In addition, under “combined concentration 200 μM in methanol, absorbance 475/390/375 nm”, the “Job's plot intercept, molar fraction (compound to Zn^2+)” value came out at 0.34.
